Measurements taken from publication PMC12278462, “Site-selective arylations of nature-inspired flavonoids or steroidal phenols via C—H or O—H activation” (Journal of Enzyme Inhibition and Medicinal Chemistry, 2025).
Read-outs that look alike come from different tables or passages of the source.

Columns and labels:
HeLa = assay: MTT antiproliferative assay, HeLa; type: cell-based, human; details: Homo sapiens, HeLa, 72 h; for IC50: read-out: calculated IC50 HeLa
Description: (§1) We evaluated the cytotoxic activity of the newly synthesised arylated compounds 13–17 by the MTT assay[37] on a panel of human adherent cancer cell lines. The panel included breast (MCF-7 and MDA MB-231) and cervical (HeLa, SiHa and C33A) cancer cell lines differing in receptorial or HPV status. Tumour selectivity was determined on the NIH/3T3 mouse fibroblast cell line.
(§2) Briefly, the panels of breast and cervical cancerous cell lines, differing by their receptorial and HPV status were used, precisely MCF-7 (ER, PR and HER2 positive) and MDA-MB-231 (TNBC) breast carcinoma and HeLa (HPV18+), SiHa (HPV16+), C33A (HPV-) cervical carcinoma cells. Non-cancerous NIH/3T3 mouse fibroblast cell line was used for selectivity study. MCF-7, MDA-MB-231, Hela and NIH/3T3 cell lines were purchased from ECACC (European Collection of Cell Cultures, Salisbury, UK), while SiHa and C33A from ATCC (American Tissue Culture Collection, LGC Standards GmbH, Wesel, Germany). Cells were maintained in Eagle's Minimum Essential Medium (EMEM, Capricorn Scientific GmbH, Ebsdorfergrund, Germany) supplemented with 10% heat-inactivated fetal bovine serum (FBS), 1% non-essential amino acids (NEAA), and 1% antibiotic-antimycotic mixture (penicillin–streptomycin). The cells were maintained at 37 °C in a humidified atmosphere containing 5% CO2.
(§3) For measurements cells were seeded for 96-well plates at a density of 5 000/well, except for C33A, which was seeded in 10 000cells for each well. After overnight standing cells were treated with 10 and 30 µM solutions for screening and increasing concentrations (0.1-30.0 µM) of the test compounds were used for concentration-response curves. After incubation for 72 hours under cell culturing condition 5 mg/ml MTT (3-(4,5-[…])-2,5-diphenyl-2H-tetrazolium bromide) solution was added for another 4 h. The precipitated formazan crystals were solubilized in DMSO and the absorbance was measured at 545 nm with a microplate reader (BMG Labtech, Ortenberg, Germany). Wells with untreated cells were utilized as control, and inhibition % were calculated by GraphPad Prism v 9.0 software (GraphPad Software, San Diego, CA, USA). If the growth-inhibition exceeded 70% at 30 µM concentration during the screening concentration-response curves were fitted and IC50 values were calculated by GraphPad Prism v 9.0. The experiments were performed with five parallel wells for each experimental condition and repeated at least twice.

17β-HSD1 = target: T1, 17β-HSD1 (Homo sapiens, UniProt P14061); assay: 17β-HSD1 enzymatic assay (E1 to E2, LC-MS/MS); type: biochemical
T1 sequence (P14061 1-328): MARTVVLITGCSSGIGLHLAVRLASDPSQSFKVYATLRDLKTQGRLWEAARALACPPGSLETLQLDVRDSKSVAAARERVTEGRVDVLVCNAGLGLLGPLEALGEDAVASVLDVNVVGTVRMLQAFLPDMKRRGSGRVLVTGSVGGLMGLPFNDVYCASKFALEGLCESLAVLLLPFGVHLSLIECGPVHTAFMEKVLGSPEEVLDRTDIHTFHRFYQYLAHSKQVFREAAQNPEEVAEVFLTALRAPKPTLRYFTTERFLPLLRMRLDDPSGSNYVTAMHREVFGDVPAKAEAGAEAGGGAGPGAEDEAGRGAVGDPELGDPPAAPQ
Description: The bacterial homogenate of E. coli overexpressing HSD17B1 was previously prepared as described in references ^S2,S3, and stored in aliquots at -80 °C. Before conducting experiments, aliquots were quickly thawed and diluted twice with 100 mM sodium phosphate buffer (pH 6.5; #14457, #1411007, Kemika), then kept on ice. The enzymatic assay was performed as described in ^S3. Briefly, a 1 mL enzymatic reaction mixture was prepared in 2 mL microcentrifuge tubes with the following components: 10 µL of the test inhibitor dissolved in dimethyl sulfoxide (DMSO; #276855, Sigma Aldrich) or 10 µL of DMSO for control samples, 5 µL of 14 µM substrate estrone (E1; CAS 53-16-7; #E2300-000, Steraloids), 10 µL of 10 mM NADPH (#AE14, Carl Roth) prepared in 100 mM sodium phosphate buffer, and 965 µL of 100 mM sodium phosphate buffer (pH 6.5). The reaction mixture was mixed thoroughly before adding 10 µL of bacterial homogenate. Immediately after addition, the tubes were transferred to an Eppendorf thermoshaker (#5382000031, Eppendorf) and incubated at 37 °C for 10 minutes. To stop the reaction, 60 µL of 1.26 M ascorbic acid (#A92902, Sigma Aldrich) in methanol (#34966, Honeywell/Riedel-de Haen) /acetic acid (#1.00063, Merck) (99:1, v/v) was added. The samples were then immediately processed using solid-phase extraction (SPE). The assay was repeated in three independent experiments, with each experiment performed in technical duplicate.
The preparation of samples for liquid chromatography-tandem mass spectrometry (LC-MS/MS) involved SPE. Stock solutions of E1 and 17β-estradiol (E2; CAS: 50-28-2; #142406, Steraloids) were prepared gravimetrically and dissolved in methanol (#34966, Honeywell/Riedel-de Haen). A working calibrator solution containing both steroids was then prepared by mixing appropriate volumes of the stock solutions in methanol to achieve a final concentration of 1 µg/mL for each steroid. Eight-point calibration curves (excluding zero and blank) were prepared in 100 mM sodium phosphate buffer (pH 6.5). For each 1 mL reaction mixture or calibrator, 10 µL of 100 ng/mL internal standard solution containing [2,3,4-13C3]-17β-estradiol (#719552, Sigma Aldrich) was added. Samples were mixed thoroughly and incubated at room temperature for 15 minutes.
SPE was performed using Strata X 33 µm polymeric reversed-phase columns (30 mg/mL tubes; #8B-S100-TAK, Phenomenex). The procedure involved the following steps: column conditioning with 1 mL of methanol, column equilibration with 1 mL of H₂O (#1.15333, Supelco), sample loading (1 mL sample or calibrator), column washing with 1 mL of H₂O, column drying under high vacuum for 10 minutes, and finally elution with 1 mL of methanol directly into HPLC glass vials (#702713, Macherey-Nagel GmbH/Co). The eluted samples were stored at -20 °C until LC-MS/MS analysis.

C33A = assay: MTT antiproliferative assay, C33A; type: cell-based, human; details: Homo sapiens, C-33-A, 72 h; for IC50: read-out: calculated IC50 C33A
Description: as §1, §2, §3

SiHa = assay: MTT antiproliferative assay, SiHa; type: cell-based, human; details: Homo sapiens, SiHa, 72 h; for IC50: read-out: calculated IC50 SiHa
Description: as §1, §2, §3

MDA-MB-231 = assay: MTT antiproliferative assay, MDA-MB-231; type: cell-based, human; details: Homo sapiens; for inhibition at 10 µM: MDA-MB-231, 10 µM; for inhibition at 10 µM / inhibition at 30 µM: 72 h; for inhibition at 30 µM: MDA-MB-231, 30 µM; for IC50: MDA-MB-231, 72 h, read-out: calculated IC50 MDA-MB-231
Description: as §1, §2, §3

[1] = tested on: NIH/3T3 mouse fibroblast cell line; assay: MTT assay, tumour selectivity on non-cancerous fibroblasts; type: cell-based; details: Mus musculus; for inhibition at 10 µM: NIH3T3, 10 µM; for inhibition at 10 µM / inhibition at 30 µM: 72 h; for inhibition at 30 µM: NIH3T3, 30 µM; for IC50: NIH3T3, 72 h, read-out: calculated IC50 NIH/3T3
Description: as §1, §2, §3

[2] = tested on: human adherent cancer cell lines (HeLa, SiHa, C33A, MCF-7 and MDA-MB-231); assay: MTT assay, whole panel of cell lines; type: cell-based; details: Homo sapiens; MTT, 72 h; range across cell lines; read-out: IC50 range over the investigated cell lines
Description: as §1, §2, §3

MCF-7 = assay: MTT antiproliferative assay, MCF-7; type: cell-based, human; details: Homo sapiens; for inhibition at 10 µM: MCF7, 10 µM; for inhibition at 10 µM / inhibition at 30 µM: 72 h; for inhibition at 30 µM: MCF7, 30 µM; for IC50: MCF7, 72 h, read-out: calculated IC50 MCF-7
Description: as §1, §2, §3

cancer cell lines = details: cited from earlier work
[3] = read-out: 17β-HSD1 Inhibition (% ± SD)

| SMILES | inhibition at 10 µM (HeLa) | inhibition at 30 µM (HeLa) | IC50 (HeLa) | 17β-HSD1 Inhibition (% ± SD) (17β-HSD1; 10 µM test concentration) | inhibition at 10 µM (C33A) | inhibition at 30 µM (C33A) | IC50 (C33A) | inhibition at 10 µM (SiHa) | inhibition at 30 µM (SiHa) | IC50 (SiHa) | inhibition at 10 µM (MDA-MB-231) | inhibition at 30 µM (MDA-MB-231) | IC50 (MDA-MB-231) | inhibition at 10 µM [1] | inhibition at 30 µM [1] | IC50 [1] | IC50 [2] | inhibition at 10 µM (MCF-7) | inhibition at 30 µM (MCF-7) | IC50 (MCF-7) | further results |
| --- | --- | --- | --- | --- | --- | --- | --- | --- | --- | --- | --- | --- | --- | --- | --- | --- | --- | --- | --- | --- | --- |
| CN(C)C(=O)Oc1cc2c(c(-c3ccc(C(C)(C)C)cc3)c1)[C@H]1CC[C@@]3(C)C(=O)CC[C@H]3[C@@H]1CC2 [13c, 3-(N,N-dimethylcarbamoyloxy)-1-(4-tert-butylphenyl)-13α-estra-1,3,5(10)-triene-17-one] | 53.8% | 98.6% | 7.9 µM | No inhibition | 41.1% | 93.6% | 10.1 µM | 54.8% | 101% | 4.74 µM | 43.8% | 92.9% | 9.09 µM | 47.3% | 97.7% | 8.75 µM | 4.74 to 10.1 µM | 58.4% | 102% | 5.7 µM | 17β-HSD1 Inhibition (% ± SD) (17β-HSD1; 100 µM test concentration): No inhibition |
| CN(C)C(=O)Oc1cc2c(c(-c3ccccc3)c1)[C@H]1CC[C@@]3(C)C(=O)CC[C@H]3[C@@H]1CC2 [13a, 3-(N,N-Dimethylcarbamoyloxy)-1-phenyl-13α-estra-1,3,5(10)-triene-17-one] | 30.9% | 59.9% |  | No inhibition | < 10% | 27.2% |  | 13.7% | 41% |  | < 10% | 41% |  | 13.5% | 22.5% |  |  | 22.5% | 52.8% |  | inhibition at 100 µM (17β-HSD1; [3]): 33.6 ± 14.9% |
| CC(C)(C)c1ccc(-c2cc(O)cc3c2[C@H]2CC[C@@]4(C)C(=O)CC[C@H]4[C@@H]2CC3)cc1 [14c, 3-hydroxy-1-(4-tert-butylphenyl)-13α-estra-1,3,5(10)-triene-17-one] | 21.9% | 98.3% | 13 µM |  | 25.4% | 89.8% | 14.4 µM | 20.2% | 99.6% | 12.5 µM | < 10% | 91.3% | 20.5 µM | 16.1% | 98.3% | 13.7 µM | 10.6 to 20.5 µM | 35.4% | 101% | 10.6 µM | inhibition at 100 µM (17β-HSD1; 100 µM test concentration, read-out: 17β-HSD1 Inhibition (% ± SD)): 77.6 ± 6.3%; IC50 (17β-HSD1; read-out: 17β-HSD1 calculated IC50 (95% CI)): 2.7 µM |
| CN(C)C(=O)Oc1cc2c(c(-c3ccc(Br)cc3)c1)[C@H]1CC[C@@]3(C)C(=O)CC[C@H]3[C@@H]1CC2 [13b, 1-(4-bromophenyl)-3-(N,N-dimethylcarbamoyloxy)-13α-estra-1,3,5(10)-triene-17-one] | 53.6% | 59.3% |  |  | < 10% | 57.8% |  | 38.6% | 40% |  | < 10% | 13.9% |  | < 10% | 46.3% |  |  | 37.5% | 68.7% |  | inhibition at 10 µM (17β-HSD1; [3]): 14.5 ± 8.4%; inhibition at 100 µM (17β-HSD1; [3]): 42.2 ± 18.6% |
| C[C@@]12CC[C@@H]3c4ccc(OCc5cn(Cc6ccccc6)nn5)cc4CC[C@H]3[C@@H]1CCC2=O [compound 5] |  |  |  |  |  |  |  |  |  |  |  |  |  |  |  |  |  |  |  |  | IC50 (cancer cell lines): 0.6 to 0.9 µM; IC50 (cytotoxic) (cancer cell lines): submicromolar |
